Format in all cases: cell-based, human
The subject of assay [1] is SSTR2. Nature of the assay: Differential expression of SSTR2 (qRT-PCR) in iPSC generated pituitary organoids. Particulars: for SSTR2 induction relative to SSTR5: PitNET organoids, summary; for induction in SSTR2 expression, mifepristone compared to relacorilant / expression of SSTR2: iPSC organoids; for induction in SSTR2 expression, mifepristone compared to relacorilant: 500 nM each, FIG. 5A; for expression of SSTR2: 500 nM, vs vehicle. The method, then: (§1) Sonic Hedgehog (SHH) was withdrawn from the organoid growth media 16 hours prior to treatment. The experimental treatment groups included: vehicle (Veh), mifepristone (500 nM, Selleckchem S2606), GANT61 (5 μM, Stemcell Technologies 73692), ketoconazole (Keto, 10 μM, Selleckchem S1353), pasireotide (Pas, 100 nM, Target Mol TP2207-SB001), octreotide (Oct, 100 nM, Selleckchem P1017), mifepristone plus GANT61, mifepristone plus Keto, mifepristone plus Pas, relacorilant (500 nM, Corcept Therapeutics CORT125134), relacorilant plus Pas, relacorilant plus Oct, or dexamethasone (Dexa, 100 nM, SIGMA S4902). In the combination treatments, cultures were pretreated with the GANT61, Keto, Pas or Oct for 2 hours prior to treatment with mifepristone or Rela. PitNET tissue derived organoids hPITO36, hPITO37, hPITO38, hPITO39, and hPITO40 were treated with the following experimental conditions: Vehicle (1), pasireotide (2), relacorilant (3), relacorilant & pasireotide (4), mifepristone (5), mifepristone & pasireotide (6). The IC50 values used for each hPITO line for each drug were determined based on dose responses (FIG. 12). All organoid cultures were treated for 48 hours prior to analysis.
(§2) RNA was extracted from PitNET tissue or iPSC generated organoids using TRI Reagent® (Molecular Research Center Inc TR118) and the High Capacity cDNA Reverse Transcription Kit (Applied Biosystems, Foster City, CA) was used for cDNA synthesis of RNA following the recommended protocol. For each sample, 60 ng RNA was reverse transcribed to yield approximately […] total cDNA that was then used for the qRT-PCR. Pre-designed real-time polymerase chain reaction assays were purchased for the following genes: TPit (Thermo Fisher Scientific 4331182 Hs00193027), SF1 (Thermo Fisher Scientific 4331182 Hs00610436), SSTR2 (Thermo Fisher Scientific 4331182 Hs00265624_s1), SSTR5 (Thermo Fisher Scientific 4331182 Hs00990407_s1), POMC (Thermo Fisher Scientific 4331182 Hs01596743_ml), hPRT (Thermo Fisher Scientific 4331182 Hs02800695_ml), and FKBP5 (Thermo Fisher Scientific 4331182 Hs01561006_m1). Polymerase chain reaction amplifications were performed in a total volume of 20 μL containing 20× TaqMan Expression Assay primers, 2× TaqMan Universal Master Mix (Applied Biosystems, TaqMan® Gene Expression Systems), and cDNA template. Each polymerase chain reaction amplification was performed in triplicate wells in a StepOne Real-Time PCR System (Applied Biosystems) by using the following conditions: 500C 2 minutes, 95° C. 10 minutes, 95° C. 15 seconds (denature) and 60° C. 1 minute (anneal/extend) for 40 cycles. Fold change was calculated as the following: (Ct-Ct high)=n target, 2ntarget/2nHPRT=fold change where Ct=threshold cycle. The results were expressed as average fold change in or differential gene expression relative to control, with HPRT used as an internal control according to Livak and Schmittgen.
In general terms: In qPCR the cycle at which signal appears reflects the starting amount.

Another assay concerns FKBP5. Nature of the assay: FKBP5 expression (GR target gene, qRT-PCR) in PitNET organoids. The note with it: 48 h, FIG. 16A-C; for differential expression of FKBP5: PitNET organoids (iPSCctrl, iPSCUSP48MV, iPSCUSP8). The method, then:
as §1
as §2, with “10 minutes, 95° C. 15 seconds (denature) and 60° C. 1 minute (anneal/extend) for 40 cycles.” left out

For another assay, the system named is iPSC^USP48MV organoids. Nature of the assay: Spectral flow cytometry, Zombie positive cells (cell death), iPSCUSP48MV organoids. Particulars: 48 h, FIGS. 8D. Here is the method:
as §1, with “All organoid cultures were treated for 48 hours prior to analysis.” left out
The multicolor flow cytometry antibody panel was designed using the Cytek® Full Spectrum Viewer online tool to calculate the similarity index. […] Data was acquired using the Cytek® Aurora, analyzed using Cytobank Premium software (Beckman Coulter).
On the technique in general: Flow cytometry measures light scatter and fluorescence of single cells or particles in a stream.

Assay [2] has as its system SSTR2. Nature of the assay: Spectral flow cytometry, SSTR2 positive cells, iPSCUSP48MV organoids. The note with it: 48 h, FIGS. 8A, E. The method, then: as §1
The multicolor flow cytometry antibody panel was designed using the Cytek® Full Spectrum Viewer online tool to calculate the similarity index. Organoids were harvested in cold Serum-Free Defined Medium media and incubated with Zombie (BioLegend 423107, 1:100) for 15 minutes in the dark at room temperature, followed by incubation with fluorochrome-conjugated/unconjugated primary surface or cytoplasmic antibodies (Table 6) at 4° C. for 30 minutes. Cells were then washed with Cell Staining Buffer (BioLegend 420-201) and incubated at 4° C. for 30 minutes with secondary antibodies (Table 6). Cells were fixed using Cytofix/Cytoperm™ Fixation/Permeabilization Solution (BD Biosciences 554714) and washed with Fixation/Permeabilization wash buffer according to the recommended protocol. […] Data was acquired using the Cytek® Aurora, analyzed using Cytobank Premium software (Beckman Coulter).

SMILES strings stand for the structures. “Also recorded” adds a separate entry of the source.

In the case of `CC#C[C@]1(O)CC[C@H]2[C@@H]3CCC4=CC(=O)CCC4=C3[C@@H](c3ccc(N(C)C)cc3)C[C@@]21C` [mifepristone, 11β-(4-dimethylaminophenyl)-17ß-hydroxy-17α-(1-propynyl)-estra-4,9-dien-3-one], the “SSTR2 induction relative to SSTR5” value in the assay with SSTR2 [1] is reported as “predominantly induced SSTR2 expression; also recorded: significantly greater induction in SSTR2 than SSTR5”. The “SSTR2 induction relative to SSTR5” value in the assay with SSTR2 [1] (listed as Mifepristone) is on record as “induces SSTR2 with greater magnitude compared to SSTR5”. Further, in the assay with SSTR2 [1] (48 h), the “induction in SSTR2 expression, mifepristone compared to relacorilant” value is given as “preferentially induced the expression of SSTR2” and the “expression of SSTR2” value is listed as “significant induction; also recorded: significantly induced the expression”. The “induction in SSTR2 expression, mifepristone compared to relacorilant” value with SSTR2 [1] (48 h, listed as Mifepristone) is recorded as “significantly greater induction in SSTR2 expression when compared to relacorilant”. Moreover, the “differential expression of SSTR2” value in the assay on SSTR2 [1] (iPSCctrl organoids, compound alone, 48 h, FIG. 5C, D) is “significantly induced”. In the assay with FKBP5, the “differential expression of FKBP5” value is listed as “significantly reduced”. In addition, the “cell death (Zombie positive cells)” value with iPSC^USP48MV organoids is reported as “not observed”. In the assay with SSTR2 [2], the “magnitude of SSTR2 induction, mifepristone vs relacorilant” value is given as “significantly greater than that of relacorilant” and the “percentage of SSTR2 positive cells” value is reported as “significant increase”.

As for `Cn1cc(S(=O)(=O)N2CCC3=Cc4c(cnn4-c4ccc(F)cc4)C[C@]3(C(=O)c3cc(C(F)(F)F)ccn3)C2)cn1` [relacorilant, (R)-(1-(4-fluorophenyl)-6-((1-methyl-1H-pyrazol-4-yl)sulfonyl)-4,4a,5,6,7,8-hexahydro-1H-pyrazolo[3,4-g]isoquinolin-4a-yl) (4-(trifluoromethyl)pyridin-2-yl) methanone], the “expression of SSTR2” value with SSTR2 [1] (48 h) is on record as “significant induction; also recorded: significantly induced the expression”. In addition, in the assay with FKBP5, the “differential expression of FKBP5” value is given as “significantly reduced”. The “magnitude of FKBP5 inhibition, compared to mifepristone” value with FKBP5 (PitNET organoids) is “significantly greater”. In addition, the “cell death (Zombie positive cells)” value with iPSC^USP48MV organoids is “significant increase in Zombie positive cells”. For the same molecule, the “percentage of SSTR2 positive cells” value with SSTR2 [2] is listed as “significant increase”.

Values taken from patent US20260325504A1, “Genetically Engineered Human Pituitary Corticotroph Tumor Organoids Exhibit Divergent Responses to Selective Glucocorticoid Receptor Modulators” (Corcept Therapeutics Incorporated, priority 2022, published 2026).
